According to patent publication US11130902B2, “Gas hydrate inhibitors” (Lamberti SPA, priority 2016, dated 2021):

Assays:
[1] = Foaming power tests (Waring Blender); type: physicochemical; conditions: 30 seconds at 8000 rpm; for FS (foam stability, time to regenerate 50 mL of liquid), Test 4 / FV (foam volume), Test 4: 1% by weight solution in 4% sea salt water solution; for FS (foam stability, time to regenerate 50 mL of liquid), Test 3 / FV (foam volume), Test 3: 1% by weight solution in deionized water
Experimental: The foam volume (FV) and the foam stability (FS) were determined by stirring for 30 seconds at high speed (8000 rpm) with a Waring Blender 100 mL of a 1% by weight solution of the inhibitors in deionized water (Test 3) or in a 4% sea salt water solution (Test 4). The foamed composition is then transferred into a graded cylinder for the evaluation of the foam volume and the stability of the foam.
FV represent the volume in mL of foam at the end of the stirring. FS is the time in seconds required to the foamed solution to regenerate 50 mL of liquid. The longer the time, the higher the stability of the foam.

[2] = Corrosion tests, Linear Polarization Resistance (LPR); conditions: 10 ppm by volume inhibitor, synthetic brine, CO2, 200 ppm H2S, 80° C., compared to the blank; for % Protection, 1 hour: after 1 hour; for % Protection, 16 hours: after 16 hours
Experimental: The Linear Polarization Resistance (LPR) measurements were made with a Gamry Electrochemical Instrument system.
The LPR corrosion tests were conducted in 1 L Pyrex jacketed cells. 900 mL of synthetic brine (50/50 v/v 4.0% Seasalt water/Fresh Water) were loaded in the cell placed on a magnetic stirrer, deaerated overnight with CO2 and, finally, saturated with 200 ppm H2S gas just before testing. A clean C1018 Mild Steel rod was inserted in the corrosion cell assembly as sample probe. A graphite rod was used as the counter electrode. The temperature of the solution was brought to 80° C. for the duration of the tests and CO2 was continuously purged at a constant flow rate. The (Test 4) inhibitors were added at 10 ppm by volume of test solution.
The results are reported in Table 4 as % of protection after a fixed period of time compared to the blank, the test solution without any inhibitor, which is considered 100% corrosion.

[3] = Gas hydrate inhibition test (Rocking Cell RC5); parameters: key: FAIL: The ball is stuck and/or large agglomerations or solid crystals and/or visible deposits on the cell walls.; PASS: The ball is free; solid crystals might be present, but agglomerates (large or small) break up with agitation; conditions: 2% by weight inhibitor, 4° C., visual evaluation after 16 hours shut-in; for gas hydrate inhibition, Test 2: 20/80 v/v deionized water/diesel; for gas hydrate inhibition, Test 1: 50/50 v/v 4% wt seasalt water/diesel
Experimental: Gas Hydrate Inhibition Test
The performances of the gas hydrate inhibitors of the invention were evaluated with a Rocking Cell RC5 by PSL Systemtechnik.
Test Fluids • Hydrocarbon: Diesel • Aq. Phase: 4% wt seasalt water or deionized water • Gas: Mix of methane, ethane, propane and butane (various isomers)
The sapphire test cells, containing a stainless steel ball, were filled with the fluids (see Table 1) and 2% by weight of inhibitor and pressurized with the gas mixture.
Each cell was the subjected to a cycle of cooling and rocking consisting of three steps: 1) flowing condition, 2) shut-in and 3) re-start flowing condition. • 1) The pressurized cells were cooled down to 4° C. over a period of 5 hours while rocking. After reaching 4° C., the cells were rocked for 12 hours. • 2) The rocking was stopped and the test cells were kept in horizontal position (shut-in) for 16 hours. • 3) At the end of the shut-in period, rocking was re-started for 4 hours. Finally the cells were heated back up to 20° C.
At the beginning of the third step, the content of the cells was visually evaluated.
Each cycle was replicated three times and the results registered.
The results of the gas hydrate inhibition tests (Table 2) are reported according to the following scale: • FAIL: The ball is stuck and/or large agglomerations or solid crystals and/or visible deposits on the cell walls. • PASS: The ball is free; solid crystals might be present, but agglomerates (large or small) break up with agitation.

Substance | FS (foam stability, time to regenerate 50 mL of liquid), Test 4 [1] | FV (foam volume), Test 4 [1] | FS (foam stability, time to regenerate 50 mL of liquid), Test 3 [1] | FV (foam volume), Test 3 [1] | % Protection, 1 hour [2] | % Protection, 16 hours [2] | gas hydrate inhibition, Test 2 [3] | gas hydrate inhibition, Test 1 [3]
N,N-dibutyl-N-ethyl-cocooxyethyl ammonium chloride | 59 s | 172 mL | 97 s | 210 mL | 78.9% | 87.9% |  | 
N,N-dibutyl-N-ethyl-cocooxyethyl ammonium ethyl sulfate | 46 s | 160 mL | 70 s | 185 mL | 81.4% | 90.2% | PASS | PASS
benzylcocodimethyl ammonium chloride | 215 s | 430 mL | 260 s | 480 mL | 79.7% | 89.5% | FAIL | FAIL
N,N-dibutyl-N-ethyl-soyaoxyethyl ammonium ethyl sulfate | 118 s | 230 mL | 180 s | 320 mL |  |  |  | 
